The values below come from US11261232B2, “TNFRSF14 / HVEM proteins and methods of use thereof” (MEMORIAL SLOAN KETTERING CANCER CENTER, priority 2015, dated 2022).

The test system of experiment [1] is mouse lymphoma lines (BCL1 and Myc/Bc12). Briefly: qRT-PCR of TNF family cytokines in mouse lymphoma lines. The experiment is classed as cell-based. To be noted: solHVEM 10 μg/ml; BCL1 and Myc/Bcl2 lines; 24 hrs. The text has this:
FIG. 5A-I. Abnormal activation of the lymphoid stroma in B-cell lymphomas. FIG. 5A, Immunohistofluorescence staining for the FDC marker CD21/35 and the FRC marker Collagen 1 on control lymphomas (vector) and HVEM knockdown lymphomas (shHVEM) (n=3 for each, scale bars=100 μm); FIG. 5B and FIG. 5C, Systematic quantification of CD21/35 (left) and collagen I (right) staining in control (Vector) and HVEM deficient (shHVEM) lymphomas based on 12 areas in the T-cell zone and 30 areas in the B-cell zone per mice (cumulative number for 3 mice), respectively; ** p<0.01; *** p<0.001 by parametric t-test; FIG. 5D and FIG. 5E, CXCL13 (FIG. 5D) and CCL19 (FIG. 5E) expression by qRT-PCR on control (vector) and HVEM knockdown (shHVEM) lymphomas (mean of four replicates, error bars indicate standard deviation, * p<0.01); FIG. 5F, qRT-PCR measurement of the LTa, LTb, and TNFa mRNA expression in B cells isolated from the spleens of vector and shHVEM mice (n=3); FIG. 5G-I, qRT-PCR measurement of TNFa (FIG. 5G), LTa (FIG. 5H), and LTb (FIG. 5I) in B cell line BCL1 after 24 hrs of treatment with solHVEM (10 μg/ml).
FIG. 12A-F. Analysis of the lymphoid stroma in B cell lymphomas. FIG. 12A, Immunohistofluorescence staining of CD20pos B cells, Transglutaminasepos FRCs, and CD21Lpos FDCs in reactive lymph nodes and two separate human follicular lymphoma tissue specimens; FIG. 12B, Flowchart of the image processing for FRC density (Collagen I); briefly, images were thresholded and transformed to binaries images, then a watershed algorithm was applied and number of polygons evaluated and analyzed by ImageJ software; FIG. 12C, Number of polygons indicates FRC density in control lymphomas (vector) and HVEM knockdown lymphomas showing no difference in FRC contribution. 40 areas were selected in the T cell zone and analyzed per mice (n=3 per each group); FIG. 12D-F, qRT-PCR measurement of TNFa (FIG. 12D), LTa (FIG. 12E), and LTb (FIG. 12F) in mouse B-cell line EuMyc-Bc12. […]

The test system of experiment [2] is cell lines that expressed high levels of BTLA. Briefly: Immunoblot of ERK phosphorylation in treated cell lines. The class given is cell-based. To be noted: 5 ug/ml; cell lines with high BTLA. As to the method: FIG. 19. In vitro effect of sTNFRSF14. Immunoblots of cell lines that were treated with 5 ug/ml of sTNFRSF14. Blots were probed as indicated.
Immunoblots were performed using whole cell lysates or supernatants as previously described (Wendel et al., 2004). In brief, 30 μg protein/sample was resolved on SDS-PAGE gels and transferred to Immobilon-P membranes (Millipore). Antibodies were against, pSyk (Cell Signaling Technologies #2712), Syk (Cell Signaling Technologies #2710), pBTK (Cell Signaling Technologies #5082), BTK (Cell Signaling Technologies #3533) pERK (Cell Signaling Technologies #9102), ERK (Cell Signaling Technologies #4370) and Tubulin (Sigma-Aldrich). Enhanced chemiluminescence was used for detection (ECL; GE Healthcare).

Take “solHVEM: Leu39-Val202 soluble HVEM ectodomain polypeptide of SEQ ID NO. 8”: in experiment [1], the “expression of LTa” value is “readily decreased”, the “expression of LTb” value was “readily decreased” and the “expression of TNFa” value is “did not reduce”.

B1: sTNFRSF14: Pro37-Val202 soluble HVEM ectodomain polypeptide of SEQ ID NO. 6 (protein, listed as Homo sapiens)
chain: PALPSCKEDEYPVGSECCPKCSPGYRVKEACGELTGTVCEPCPPGTYIAHLNGLSKCLQCQMCDPAMGLRASRNCSRTENAVCGCSPGHFCIVQDGDHCAACRAYATSSPGQRVQKGGTESQDTLCQNCPPGTFSPNGTLEECQHQTKCSWLVTKAGAGTSSSHWV
For the molecule B1, in experiment [2], the ERK phosphorylation levels entry is “clearly reduced”.
